Measurements as given in PubChem BioAssay (NCI).
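GI50 = concentration required for 50% inhibition of growth. Definition used: TGI = concentration required for complete inhibition of growth.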

Legend:
Assay in all cases: NCI tumour cell line growth inhibition, 384-well format
[1] = test system: 786-0 renal
[2] = test system: A549 NSCLC
[3] = test system: ACHN renal
[4] = test system: BT-549 breast
[5] = test system: CAKI-1 renal
[6] = test system: CCRF-CEM leukemia
[7] = test system: COLO 205 colon
[8] = test system: DU-145 prostate
[9] = test system: EKVX NSCLC
[10] = test system: HCC-2998 colon
[11] = test system: HCT-116 colon
[12] = test system: HCT-15 colon
[13] = test system: HL-60(TB) leukemia
[14] = test system: HOP-62 NSCLC
[15] = test system: HOP-92 NSCLC
[16] = test system: HS 578T breast
[17] = test system: HT29 colon
[18] = test system: IGROV1 ovarian
[19] = test system: K-562 leukemia
[20] = test system: KM12 colon
[21] = test system: LOX IMVI melanoma
[22] = test system: M14 melanoma
[23] = test system: MALME-3M melanoma
[24] = test system: MCF7 breast
[25] = test system: MDA-MB-435 melanoma
[26] = test system: MDA-MB-468 breast
[27] = test system: MOLT-4 leukemia
[28] = test system: NCI-H226 lung
[29] = test system: NCI-H23 lung
[30] = test system: NCI-H322M lung
[31] = test system: NCI-H460 NSCLC
[32] = test system: NCI-H522 lung
[33] = test system: NCI/ADR-RES ovarian
[34] = test system: OVCAR-3 ovarian
[35] = test system: OVCAR-4 ovarian
[36] = test system: OVCAR-8 ovarian
[37] = test system: PC-3 prostate
[38] = test system: RPMI-8226 leukemia
[39] = test system: RXF 393 renal
[40] = test system: SF-268 CNS
[41] = test system: SF-295 CNS
[42] = test system: SF-539 CNS
[43] = test system: SK-MEL-28 melanoma
[44] = test system: SK-MEL-5 melanoma
[45] = test system: SK-OV-3 ovarian
[46] = test system: SN12C renal
[47] = test system: SNB-19 CNS
[48] = test system: SNB-75 CNS
[49] = test system: SR leukemia
[50] = test system: SW-620 colon
[51] = test system: T-47D breast
[52] = test system: TK-10 renal
[53] = test system: U251 glioblastoma
[54] = test system: UACC-257 melanoma
[55] = test system: UACC-62 melanoma
[56] = test system: UO-31 renal

COC1CCC(N2C(=O)CNc3ncc(-c4ccc(C(C)(C)O)nc4)nc32)CC1 (configuration not stated)
GI50 [1]: 911 nM | TGI [1]: > 100000 nM | GI50 [2]: 358 nM | TGI [2]: > 100000 nM | GI50 [3]: 479 nM | TGI [3]: > 100000 nM | GI50 [4]: 474 nM | TGI [4]: 7350 nM | GI50 [5]: 215 nM | TGI [5]: 3620 nM | GI50 [6]: 261 nM | TGI [6]: 10600 nM | GI50 [7]: 323 nM | TGI [7]: > 100000 nM | GI50 [8]: 660 nM | TGI [8]: 20200 nM | GI50 [9]: 530 nM | TGI [9]: 31200 nM | GI50 [10]: 2540 nM | TGI [10]: 34800 nM | GI50 [11]: 690 nM | TGI [11]: 21800 nM | GI50 [12]: 448 nM | TGI [12]: 44700 nM | GI50 [13]: 2470 nM | TGI [13]: 17100 nM | GI50 [14]: 672 nM | TGI [14]: > 100000 nM | GI50 [15]: 454 nM | TGI [15]: > 100000 nM | GI50 [16]: 173 nM | TGI [16]: 523 nM | GI50 [17]: 697 nM | TGI [17]: > 100000 nM | GI50 [18]: 137 nM | TGI [18]: 12800 nM | GI50 [19]: 517 nM | TGI [19]: 72000 nM | GI50 [20]: 474 nM | TGI [20]: 33900 nM | GI50 [21]: 587 nM | TGI [21]: 12900 nM | GI50 [22]: 296 nM | TGI [22]: > 100000 nM | GI50 [23]: 68.9 nM | TGI [23]: 587 nM | GI50 [24]: 68.6 nM | TGI [24]: > 100000 nM | GI50 [25]: 515 nM | TGI [25]: 24200 nM | GI50 [26]: 344 nM | TGI [26]: 6980 nM | GI50 [27]: 233 nM | TGI [27]: 2110 nM | GI50 [28]: 326 nM | TGI [28]: 7120 nM | GI50 [29]: 1460 nM | TGI [29]: > 100000 nM | GI50 [30]: 280 nM | TGI [30]: 52900 nM | GI50 [31]: 65.9 nM | TGI [31]: 16300 nM | GI50 [32]: 200 nM | TGI [32]: 21400 nM | GI50 [33]: 2360 nM | TGI [33]: 32300 nM | GI50 [34]: 386 nM | TGI [34]: 22800 nM | GI50 [35]: 901 nM | TGI [35]: 8950 nM | GI50 [36]: 693 nM | TGI [36]: > 100000 nM | GI50 [37]: 157 nM | TGI [37]: 14600 nM | GI50 [38]: 25 nM | TGI [38]: 110 nM | GI50 [39]: 438 nM | TGI [39]: 92400 nM | GI50 [40]: 2180 nM | TGI [40]: 20000 nM | GI50 [41]: 184 nM | TGI [41]: 1120 nM | GI50 [42]: 1270 nM | TGI [42]: 22300 nM | GI50 [43]: 234 nM | TGI [43]: > 100000 nM | GI50 [44]: 200 nM | TGI [44]: 2620 nM | GI50 [45]: 280 nM | TGI [45]: 17100 nM | GI50 [46]: 275 nM | TGI [46]: 68400 nM | GI50 [47]: 5340 nM | TGI [47]: > 100000 nM | GI50 [48]: 256 nM | TGI [48]: 22900 nM | GI50 [49]: 16 nM | TGI [49]: 53.3 nM | GI50 [50]: 2580 nM | TGI [50]: > 100000 nM | GI50 [51]: 74.3 nM | TGI [51]: > 100000 nM | GI50 [52]: 504 nM | TGI [52]: 17200 nM | GI50 [53]: 1900 nM | TGI [53]: 41200 nM | GI50 [54]: 3010 nM | TGI [54]: > 100000 nM | GI50 [55]: 237 nM | TGI [55]: 8490 nM | GI50 [56]: 358 nM | TGI [56]: > 100000 nM
